# ChEMBL document CHEMBL4765389, “Antimicrobial and anti-inflammatory activities of short dodecapeptides derived from duck cathelicidin: Plausible mechanism of bactericidal action and endotoxin neutralization” (Eur J Med Chem, 2020)
# Activity calls are given as the source filed them. No cut-off for these calls is given here. Bridge positions count the residues as written; N and C are the ends. Square brackets hold non-standard residues; d marks the D form. Peptide text beside a SMILES is read from it. * marks the point of attachment. X1 = CC[C@H](C)CCCCC(=O)*; Dab = NCC[C@H](N)C(=O)O
# How the values were obtained:
# Escherichia coli [1] = assay: Bacteriostatic activity against Escherichia coli KCTC 1682 assessed as reduction in colony forming unit at 0.5 times MIC measured for 24 hrs by time kill assay; assay type: functional
# Escherichia coli [2] = assay: Bacteriostatic activity against Escherichia coli KCTC 1682 assessed as reduction in colony forming unit at 0.5 times MIC measured for 12 hrs by time kill assay; assay type: functional, organism-based
# Lipopolysaccharide (LPS) = assay: Inhibition of Escherichia coli O111:B4 LPS aggregation assessed as increase in FITC-LPS dissociation at 100 uM by spectrofluorometry
# RAW264.7 [3] = assay: Antiinflammatory activity in mouse RAW264.7 cells assessed as neutralization of LPS binding by measuring LPS-FITC aggregation at 10 uM pretreated with LPS for 1 hr followed by compound addition and measured after 1 hr by flowcytometry analysis (reference value: 48.12 %); assay type: functional
# RAW264.7 [4] = assay: Antiinflammatory activity in mouse RAW264.7 cells assessed as suppression of LPS binding by measuring LPS-FITC aggregation at 10 uM pretreated with LPS for 1 hr followed by compound addition and measured after 30 mins by flowcytometry analysis (reference value: 67.93 %); assay type: functional; conditions: 0.5 h
# NIH3T3 [5] = assay: Cytotoxicity against mouse NIH/3T3 cells assessed as reduction in cell viability at 1.25 to 80 uM incubated for 24 hrs by MTT assay; assay type: cell-based; conditions: nih3t3, 24 h, dose 1.25-80 µM
# Bacteria [6] = assay: Antibacterial activity against Gram negative bacteria assessed as reduction in bacterial growth incubated for 24 hrs by CLSI based broth dilution method; assay type: functional; conditions: read-out: MIC100
# [7] = Therapeutic index, ratio of HC10 for sheep RBC to geometric mean MIC for gram positive bacteria; assay type: toxicity; conditions: sheep red blood cells, read-out: TI
# Saccharomyces cerevisiae = assay: Antifungal activity against yeast assessed as reduction in fungal growth incubated for 24 hrs by CLSI based broth dilution method; assay type: functional; conditions: read-out: MIC100
# [8] = Antibacterial activity against multidrug-resistant Pseudomonas aeruginosa CCARM 2095 assessed as reduction in bacterial growth incubated for 24 hrs by CLSI based broth dilution method; assay type: functional; conditions: read-out: MIC100
# Bacteria [9] = assay: Antibacterial activity against Gram positive bacteria assessed as reduction in bacterial growth incubated for 24 hrs by CLSI based broth dilution method; assay type: functional; conditions: read-out: MIC100
# RAW264.7 [10] = assay: Cytotoxicity against mouse RAW264.7 cells assessed as reduction in cell viability at 1.25 to 80 uM incubated for 24 hrs by MTT assay; assay type: cell-based; conditions: raw264.7, 24 h, dose 1.25-80 µM
# Cell membrane [11] = assay: Induction of cell membrane permeability in Staphylococcus aureus KCTC 1621 assessed as cytoplasmic membrane depolarization at 2 times MIC by SYTOX dye based fluorescence assay; assay type: subcellular
# Candida albicans [12] = assay: Antifungal activity against Candida albicans KCTC 7965 assessed as reduction in fungal growth incubated for 24 hrs by CLSI based broth dilution method; assay type: functional; conditions: read-out: MIC100
# Enterococcus faecium = assay: Antibacterial activity against vancomycin-resistant Enterococcus faecium ATCC 51559 assessed as reduction in bacterial growth incubated for 24 hrs by CLSI based broth dilution method; assay type: functional; conditions: read-out: MIC100
# Candida albicans [13] = assay: Antifungal activity against Candida albicans KCTC 7121 assessed as reduction in fungal growth incubated for 24 hrs by CLSI based broth dilution method; assay type: functional; conditions: read-out: MIC100
# NIH3T3 [14] = assay: Cytotoxicity against mouse NIH/3T3 cells assessed as reduction in cell viability at 20 uM incubated for 24 hrs by MTT assay; assay type: cell-based; conditions: nih3t3, 24 h, 20 µM
# [15] = Therapeutic index, ratio of HC10 for sheep RBC to geometric mean MIC for gram negative bacteria; assay type: toxicity; conditions: sheep red blood cells, read-out: TI
# [16] = Cytotoxicity against mouse RAW264.7 cells assessed as reduction in cell viability at 20 uM incubated for 24 hrs by MTT assay; assay type: cell-based; conditions: read-out: INH
# Erythrocyte = assay: Hemolytic activity in sheep RBC assessed as reduction in hemoglobin incubated for 1 hr; assay type: ADME, cell-based, Ovis aries
# Cell membrane [17] = assay: Induction of cell membrane permeability in Staphylococcus aureus KCTC 1621 assessed as cytoplasmic membrane depolarization at 2 times MIC by DiSC3-5 dye based spectrofluorometry; assay type: subcellular
# [18] = Therapeutic index, ratio of HC10 for sheep RBC to geometric mean MIC for yeast; assay type: toxicity; conditions: sheep red blood cells, read-out: TI
# Cell membrane [19] = assay: Induction of cell membrane permeability in Escherichia coli KCTC 1682 assessed as […] at 2 times MIC by ONPG dye based spectrophotometry; assay type: subcellular
# [20] = Antibacterial activity against multidrug-resistant Pseudomonas aeruginosa CCARM 2109 assessed as reduction in bacterial growth incubated for 24 hrs by CLSI based broth dilution method; assay type: functional; conditions: read-out: MIC100
# Cell membrane [21] = assay: Induction of cell membrane permeability in Escherichia coli KCTC 1682 assessed as cytoplasmic membrane […] fluorescent signals at 2 times MIC measured after 1 hr by propidium iodide dye based flow cytometry analysis (reference value: 9.8 %); assay type: subcellular
smiles,measurement,setting,value
O=C(N[C@H](CO)[C@H](O)c1ccc([N+](=O)[O-])cc1)C(Cl)Cl,Activity,Escherichia coli [1],inactive
same,Activity,Escherichia coli [2],Active
CC[C@H](C)CCCCC(=O)N[C@@H](CCN)C(=O)N[C@H](C(=O)N[C@@H](CCN)C(=O)N[C@H]1CCNC(=O)[C@H]([C@@H](C)O)NC(=O)[C@H](CCN)NC(=O)[C@H](CCN)NC(=O)[C@H](CC(C)C)NC(=O)[C@@H](Cc2ccccc2)NC(=O)[C@H](CCN)NC1=O)[C@@H](C)O (X1-[Dab]T[Dab][Dab][Dab][dF]L[Dab][Dab]T; lactam 4-C),inhibition,Lipopolysaccharide (LPS),inactive
same,Activity,RAW264.7 [3],43.62%
same,Activity,RAW264.7 [4],23.97%
CC[C@H](C)[C@H](NC(=O)CN)C(=O)NCC(=O)N[C@@H](C)C(=O)N[C@H](C(=O)N[C@@H](CC(C)C)C(=O)N[C@@H](CCCCN)C(=O)N[C@H](C(=O)N[C@@H](CC(C)C)C(=O)N[C@H](C(=O)N[C@H](C(=O)NCC(=O)N[C@@H](CC(C)C)C(=O)N1CCC[C@H]1C(=O)N[C@@H](C)C(=O)N[C@@H](CC(C)C)C(=O)N[C@H](C(=O)N[C@@H](CO)C(=O)N[C@@H](Cc1c[nH]c2ccccc12)C(=O)N[C@H](C(=O)N[C@@H](CCCCN)C(=O)N[C@@H](CCCNC(=N)N)C(=O)N[C@@H](CCCCN)C(=O)N[C@@H](CCCNC(=N)N)C(=O)N[C@@H](CCC(N)=O)C(=O)N[C@@H](CCC(N)=O)C(N)=O)[C@@H](C)CC)[C@@H](C)CC)[C@@H](C)O)[C@@H](C)O)C(C)C)C(C)C [MELITTIN],Activity,NIH3T3 [5],Toxic
same,MIC,Bacteria [6],17.2 µM
same,selectivity ratio,[7],0.1
same,MIC,Saccharomyces cerevisiae,16 µM
same,MIC,[8],32 µM
same,MIC,Bacteria [9],16 µM
same,Activity,RAW264.7 [10],Toxic
same,Activity,Cell membrane [11],Active
same,MIC,Candida albicans [12],16 µM
same,MIC,Enterococcus faecium,16 µM
same,MIC,Candida albicans [13],16 µM
same,Activity,NIH3T3 [14],Toxic
same,selectivity ratio,[15],0.1
same,"cytotoxicity at 24 h, 20 µM",[16],< 10%
same,HC10,Erythrocyte,1 µM
same,Activity,Cell membrane [17],Active
same,selectivity ratio,[18],0.1
same,Activity,Cell membrane [19],Active
same,MIC,[20],32 µM
same,Activity,Cell membrane [21],71.9%
